Experiments:
lean control mice [1] = assay: Acute cumulative food intake in lean mice; assay type: in vivo, mouse; conditions: 250 nmol/kg i.p., 18 h fasted lean mice, 180 min post injection, vs saline
Procedure: Animals Acute animal studies were conducted in male NIH Swiss mice (12-14 weeks old, Harlan Ltd, UK) maintained on a standard rodent maintenance diet (10% fat, 30% protein and 60% carbohydrate, Trouw Nutrition, UK). Prior to commencement of longer term studies, all animals, except lean controls that continued on rodent maintenance diet, were maintained on a high-fat diet (45% fat, 35% carbohydrate and 20% protein, Special Diet Services, UK) for 12 weeks. This diet […]
individually in an air-conditioned room at 22 ± 2 °C with a 12 h light:12 h dark cycle and had free access to food and water. Animal experiments were carried out in accordance with the UK Animals (Scientific Procedures) Act 1986.
Acute in vivo effects in lean mice For food intake studies, fasted (18 h) mice were given intraperitoneal (i.p) injections of peptides at a dose of 25, 100 or 250 nmol/kg bw. Mice were then allowed free access to normal chow for 180 mins and cumulative food intake measured. For glucose homeostasis and […]

high-fat-fed mice [2] = assay: Glucose tolerance test after 21 day treatment; assay type: in vivo, mouse; conditions: AUC 0–105 min after i.p. glucose 18 mmol/kg; 25 nmol/kg twice daily for 21 days; 18 h fasted high-fat-fed mice; mean ± SEM, 6–8 mice
Procedure: (§1) Twice-daily (09:30 and 17:30 hours) i.p. injections of saline vehicle, (DAla^2)GIP or (DAla^2)GIP/xenin-8-Gln hybrid (both at 25 nmol/kg) were administered for 21 days in high-fat-fed mice. Energy intake and body weight were monitored daily and non-fasting blood glucose and plasma insulin concentrations were assessed at 3 day intervals. On day 21, a non-fasted 24 h glucose profile was conducted. At the end of the treatment period, i.p. glucose tolerance (18 mmol/kg), biological response to GIP (18 mmol/kg glucose in combination with native GIP [25 nmol/kg], i.p.) and insulin sensitivity (15 U/kg; i.p.) tests were performed. Terminal analysis included measurement of total body fat and lean mass by dual-energy X-ray absorptiometry (DEXA) scanning (Piximus Densitometer; Inside Outside Sales, Fitchburg, WI, USA) and extraction of pancreatic tissue for analysis as detailed below.

BRIN-BD11 cells [3] = assay: In vitro insulin secretion from BRIN-BD11 cells; assay type: cell-based, rat; conditions: 20 min
Procedure: (§2) BRIN-BD11 cells were used to assess the insulin-releasing activity of test peptides, as described previously. This hybrid cell line (ECACC 10033003) was originally generated in-house by electrofusion of a primary culture of New England Deaconess Hospital (NEDH) rat pancreatic islets with RINm5F (a cell line derived from an NEDH rat insulinoma), and has been mycoplasma eradicated. For details of experimental conditions please see ESM Methods. Insulin was measured by radioimmunoassay. We assessed the impact of GIP and neurotensin receptors on (DAla^2)GIP/xenin-8-Gln-induced insulin secretion in BRIN-BD11 cells. Cells were incubated in 5.6 mmol/l glucose with (DAla^2)GIP/xenin-8-Gln (10^−6 mol/l) alone or in combination with the GIP receptor antagonist GIP(6-30)Cex-K^40[Pal] [32] (where Pal is palmitate) or the neurotensin receptor antagonist SR142948A (Sigma, Poole, UK), and insulin secretion determined as described above. In addition, to determine mechanisms, intracellular Ca^2+ was also measured in BRIN-BD11 cells following treatment with test peptides (10^−6 mol/l), using a Flexstation scanning fluorometer (FLIPR Calcium 5 assay kit; Molecular Devices, Sunnyvale, CA, USA), as described previously.
In vitro insulin release studies Cells were seeded at a density of 150,000 cells/well in 24-well plates (Nunc, Roskilde, Denmark) and allowed to attach overnight at 37 °C. Culture medium was removed and cells were pre-incubated in Krebs–Ringer bicarbonate buffer (containing 0.5% (w/v) BSA, pH 7.4) supplemented with 1.1 mmol/l glucose for 40 min at 37 °C. Following the pre-incubation, experiments (n=8) were performed in presence of glucose (5.6 or 16.7 mmol/l) with a […]
incubations, aliquots of assay buffer were collected from each well and stored at -20 °C prior to […]
Acute in vivo effects in lean mice For food intake studies, fasted (18 h) mice were given intraperitoneal (i.p) injections of peptides at a dose of 25, 100 or 250 nmol/kg bw. Mice were then allowed free access to normal chow for 180 mins and cumulative food intake measured. […]

BRIN-BD11 cells [4] = assay: Intracellular Ca2+ in BRIN-BD11 cells (FLIPR Calcium 5); assay type: cell-based, rat; conditions: peptide 10^−6 mol/l, 5.6 mmol/l glucose, 5 min, AUC 0–300 s
Procedure: as §2

lean control mice [5] = assay: Persistent glucose-lowering and insulin-releasing effects, peptide 4 h before glucose load; assay type: in vivo, mouse; conditions: 25 nmol/kg injected 4 h before i.p. glucose load 18 mmol/kg, non-fasted lean mice, vs saline
Procedure: Specific information on acute feeding, glucose homeostasis and insulin-secretory studies is given in ESM Methods. To assess the impact of GIP and neurotensin receptor activation on (DAla^2)GIP/xenin-8-Gln-induced glucose-lowering and insulin-secretory actions in mice, (DAla^2)GIP/xenin-8-Gln was administered by i.p. injection (25 nmol/kg body weight) in combination with glucose (18 mmol/kg) in the absence and presence of GIP(6-30)Cex-K^40[Pal] and SR142948A (both at 25 nmol/kg), and glucose and insulin were measured as described above. In a final series of experiments, test peptides (25 nmol/kg) or saline vehicle (0.9% wt/vol. NaCl) were injected 4 h before a glucose load (18 mmol/kg) in non-fasted mice and blood glucose and plasma insulin measured as above.

high-fat-fed mice [6] = assay: Insulin sensitivity test after 21 day treatment; assay type: in vivo, mouse; conditions: insulin 15 U/kg i.p., non-fasted high-fat-fed mice after 21 days at 25 nmol/kg twice daily
Procedure: as §1
Fig. 4 Effects of twice-daily administration of (DAla^2)GIP and (DAla^2)GIP/xenin-8-Gln on insulin sensitivity and pancreatic insulin content in high-fat-fed mice. […] Blood glucose was measured (a), area above the curve (AAC) was calculated using identical baseline subtraction for each group (b) and pancreatic insulin content was measured by RIA (c). […]

CC[C@H](C)[C@H](NC(=O)[C@H](CO)NC(=O)[C@H](Cc1ccc(O)cc1)NC(=O)[C@H](CC(=O)O)NC(=O)[C@H](CO)NC(=O)[C@@H](NC(=O)[C@H](Cc1ccccc1)NC(=O)[C@@H](NC(=O)CNC(=O)[C@H](CCC(=O)O)NC(=O)[C@@H](C)NC(=O)[C@@H](N)Cc1ccc(O)cc1)[C@@H](C)O)[C@@H](C)CC)C(=O)N[C@@H](C)C(=O)N[C@@H](CCSC)C(=O)N[C@@H](CC(=O)O)C(=O)N[C@@H](CCCCN)C(=O)N[C@H](C(=O)N[C@@H](Cc1c[nH]cn1)C(=O)N[C@@H](CCC(N)=O)C(=O)N[C@@H](CCC(N)=O)C(=O)N[C@@H](CC(=O)O)C(=O)N[C@@H](Cc1ccccc1)C(=O)N[C@H](C(=O)N[C@@H](CC(N)=O)C(=O)N[C@@H](Cc1c[nH]c2ccccc12)C(=O)N[C@@H](CC(C)C)C(=O)N[C@@H](CC(C)C)C(=O)N[C@@H](C)C(=O)N[C@@H](CCC(N)=O)C(=O)N[C@@H](CCCCN)C(=O)NCC(=O)N[C@@H](CCCCN)C(=O)N[C@@H](CCCCN)C(=O)N[C@@H](CC(N)=O)C(=O)N[C@@H](CC(=O)O)C(=O)N[C@@H](Cc1c[nH]c2ccccc12)C(=O)N[C@@H](CCCCN)C(=O)N[C@@H](Cc1c[nH]cn1)C(=O)N[C@@H](CC(N)=O)C(=O)N[C@H](C(=O)N[C@H](C(=O)N[C@@H](CCC(N)=O)C(=O)O)[C@@H](C)O)[C@@H](C)CC)C(C)C)[C@@H](C)CC [(DAla^2)GIP]
Cumulative food intake (lean control mice [1]): all peptides except (DAla^2)GIP induced significant (p < 0.05 to p < 0.01) reductions | Glucose tolerance test: Blood glucose AUC (high-fat-fed mice [2]): 1714.7 ± 138.6 mmol·min/L | Glucose tolerance test: Plasma insulin AUC (high-fat-fed mice [2]): 11,253 ± 1590 pmol/l × min | Peptide-mediated insulin secretion in presence of GIP receptor antagonist GIP(6-30)Cex-K^40[Pal] (BRIN-BD11 cells [3]; peptide 10^−6 mol/l, antagonist 10^−6 mol/l, 5.6 mmol/l glucose): completely annulled | Insulin release from BRIN-BD11 cells (BRIN-BD11 cells [3]; peptide 10^−8 mol/l, 5.6 or 16.7 mmol/l glucose, vs respective glucose controls): significant (p < 0.01 to p < 0.001) increase in insulin release | Effect on intracellular Ca^2+ concentrations (BRIN-BD11 cells [4]): Neither, (DAla^2)GIP, xenin-8-Gln nor (DAla^2)GIP/xenin-8-Gln had any effect | Overall AUC for blood glucose after glucose challenge (lean control mice [5]): significantly reduced the overall AUC for blood glucose (p < 0.05) | Plasma insulin AUC after glucose challenge (lean control mice [5]): increased plasma insulin AUC (p < 0.05) | Individual blood glucose levels following exogenous insulin (high-fat-fed mice [6]): reduced, albeit non-significantly | Overall glucose-lowering effect of insulin (area above the curve) (high-fat-fed mice [6]; vs control high-fat mice): significantly (p < 0.001) improved

Reference: PMC6518372, “An enzymatically stable GIP/xenin hybrid peptide restores GIP sensitivity, enhances beta cell function and improves glucose homeostasis in high-fat-fed mice” (Diabetologia, 2016)
